biological target: T1, Recombinant human cathepsin S (CatS) (Homo sapiens, UniProt P25774); assay: Recombinant human cathepsin S (CatS) fluorogenic substrate inhibition assay; assay type: biochemical; conditions: average of results obtained; substrate Z-Valine-Valine-Arginine-AMC 10 μM, pH 5.0; read-out: CatS IC50
T1 construct: made in house
Experimental: Recombinant human cathepsin S (CatS) was expressed in the baculovirus system and purified in one step with a thiopropyl-sepharose column. […] The assay is run in 150 mM sodium acetate pH 5.0 containing 1.5 mM DTT and 150 mM NaCl. […] Measurements are taken every min for 20 min. The rate is calculated from the slope of the increase in fluorescence and the percent inhibition is calculated from this.

T1 sequence (P25774 115-331): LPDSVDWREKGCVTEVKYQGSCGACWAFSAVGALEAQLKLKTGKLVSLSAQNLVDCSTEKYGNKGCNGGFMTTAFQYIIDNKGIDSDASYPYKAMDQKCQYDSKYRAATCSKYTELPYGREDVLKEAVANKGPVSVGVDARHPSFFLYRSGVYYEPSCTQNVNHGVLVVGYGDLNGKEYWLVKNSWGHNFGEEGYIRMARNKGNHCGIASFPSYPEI

SMILES | IC50
CC(C)=CC(=O)NCc1cc(-c2nn(CC(O)CN3CCC(F)(F)CC3)c3c2CN(S(C)(=O)=O)CC3)ccc1C(F)(F)F (stereo not drawn) [Example 31, 3-Methyl-but-2-enoic acid 5-{1-[3-(4,4-difluoro-piperidin-1-yl)-2-hydroxy-propyl]-5-methanesulfonyl-4,5,6,7-tetrahydro-1H-pyrazolo[4,3-c]pyridin-3-yl}-2trifluoromethyl-benzylamide] | 0.11 µM
Cc1ccc(C(=O)NCc2cc(-c3nn(CCCN4CCCC4)c4c3CN(S(C)(=O)=O)CC4)ccc2Cl)cc1 [Example 88, N-{2-Chloro-5-[5-methanesulfonyl-1-(3-pyrrolidin-1-yl-propyl)-4,5,6,7-tetrahydro-1H-pyrazolo[4,3-c]pyridin-3-yl]-benzyl}-4-methyl-benzamide] | 0.74 µM
CCOC(=O)NC1CCN(CC(O)Cn2nc(-c3ccc(C(F)(F)F)c(CNC(=O)CC(C)C)c3)c3c2CCN(S(C)(=O)=O)C3)CC1 (stereo not drawn) [Example 155, {1-[2-Hydroxy-3-(5-methanesulfonyl-3-{3-[(3-methyl-butyrylamino)-methyl]-4-trifluoromethyl-phenyl}-4,5,6,7-tetrahydro-pyrazolo[4,3-c]pyridin-1-yl)-propyl]-piperidin-4-yl}-carbamic acid ethyl ester] | 0.05 µM
CC(C)CC(=O)NCc1cc(-c2nn(CC(O)CN3CCC(C(C)(C)C)CC3)c3c2CN(C(=O)CO)CC3)ccc1C(F)(F)F (stereo not drawn) [Example 298, N-{5-[1-[3-(4-tert-Butyl-piperidin-1-yl)-2-hydroxy-propyl]-5-(2-hydroxy-acetyl)-4,5,6,7-tetrahydro-1H-pyrazolo[4,3-c]pyridin-3-yl]-2-trifluoromethyl-benzyl}-3-methyl-butyramide] | 0.08 µM
CC(C)=CC(=O)NCc1cc(-c2nn(CC(O)CN3CCOCC3)c3c2CN(S(C)(=O)=O)CC3)ccc1C(F)(F)F (stereo not drawn) [Example 153, 3-Methyl-but-2-enoic acid 5-[1-(2-hydroxy-3-morpholin-4-yl-propyl)-5-methanesulfonyl-4,5,6,7-tetrahydro-1H-pyrazolo[4,3-c]pyridin-3-yl]-2-trifluoromethyl-benzylamide] | 0.14 µM
CS(=O)(=O)N1CCc2c(c(-c3ccc(Cl)c(CNC(=O)c4cccnc4)c3)nn2CCCN2CCCC2)C1 [Example 232, N-{2-Chloro-5-[5-methanesulfonyl-1-(3-pyrrolidin-1-yl-propyl)-4,5,6,7-tetrahydro-1H-pyrazolo[4,3-c]pyridin-3-yl]-benzyl}-nicotinamide] | 0.82 µM
Cc1nc2ccccc2c(=O)n1Cc1cc(-c2nn(CCCN3CCC4(CCNC4=O)CC3)c3c2CN(S(C)(=O)=O)CC3)ccc1C(F)(F)F [Example 174, 3-(5-{5-Methanesulfonyl-1-[3-(1-oxo-2,8-diaza-spiro[4.5]dec-8-yl)-propyl]-4,5,6,7-tetrahydro-1H-pyrazolo[4,3-c]pyridin-3-yl}-2-trifluoromethyl-benzyl)-2-methyl-3H-quinazolin-4-one] | 13.5 µM
CS(=O)(=O)N1CCc2c(c(-c3ccc(C(F)(F)F)c(CNC(=O)c4cc5ccccc5s4)c3)nn2CC(O)CN2CCC3(CCNC3=O)CC2)C1 (stereo not drawn) [Example 157, Benzo[b]thiophene-2-carboxylic acid 5-{1-[2-hydroxy-3-(1-oxo-2,8-diaza-spiro[4.5]dec-8-yl)-propyl]-5-methanesulfonyl-4,5,6,7-tetrahydro-1H-pyrazolo[4,3-c]pyridin-3-yl}-2-trifluoromethyl-benzylamide] | 0.27 µM
CS(=O)(=O)N1CCc2c(c(-c3ccc(C(F)(F)F)c(CNC(=O)C4CCCCCC4)c3)nn2CC(O)CN2CCC3(CCNC3=O)CC2)C1 (stereo not drawn) [Example 167, Cycloheptanecarboxylic acid 5-{1-[2-hydroxy-3-(1-oxo-2,8-diaza-spiro[4.5]dec-8-yl)-propyl]-5-methanesulfonyl-4,5,6,7-tetrahydro-1H-pyrazolo[4,3-c]pyridin-3-yl}-2-trifluoromethyl-benzylamide] | 0.49 µM
CS(=O)(=O)N1CCc2c(c(-c3ccc(C(F)(F)F)c(CNC(=O)c4ccc(O)cc4)c3)nn2CCCN2CCC3(CCNC3=O)CC2)C1 [Example 142, 4-Hydroxy-N-(5-{5-methanesulfonyl-1-[3-(1-oxo-2,8-diaza-spiro[4.5]dec-8-yl)-propyl]-4,5,6,7-tetrahydro-1H-pyrazolo[4,3-c]pyridin-3-yl}-2-trifluoromethyl-benzyl)-benzamide] | 0.09 µM

The next lines start with the values.

IC50 | SMILES
0.6 µM | CS(=O)(=O)N1CCc2c(c(-c3ccc(C(F)(F)F)c(CNC(=O)c4ccc(F)cc4)c3)nn2CC(O)CN2CNC(=O)C2)C1 (stereo not drawn) [Example 171, 4-Fluoro-N-(5-{1-[2-hydroxy-3-(4-oxo-imidazolidin-1-yl)-propyl]-5-methanesulfonyl-4,5,6,7-tetrahydro-1H-pyrazolo[4,3-c]pyridin-3-yl}-2-trifluoromethyl-benzyl)-benzamide]
0.55 µM | CS(=O)(=O)N1CCc2c(c(-c3ccc(C(F)(F)F)c(CNC(=O)c4ccc(F)cc4)c3)nn2CC(O)CN2CCS(=O)(=O)CC2)C1 (stereo not drawn) [Example 169, N-(5-{1-[3-(1,1-Dioxo-1λ^6-thiomorpholin-4-yl)-2-hydroxy-propyl]-5-methanesulfonyl-4,5,6,7-tetrahydro-1H-pyrazolo[4,3-c]pyridin-3-yl}-2-trifluoromethyl-benzyl)-4-fluoro-benzamide]
0.25 µM | CS(=O)(=O)N1CCc2c(c(-c3ccc(C(F)(F)F)c(CNC(=O)c4ccc(F)cc4Cl)c3)nn2CC(O)CN2CCCC2)C1 (stereo not drawn) [Example 63, 2-Chloro-4-fluoro-N-{5-[1-(2-hydroxy-3-pyrrolidin-1-yl-propyl)-5-methanesulfonyl-4,5,6,7-tetrahydro-1H-pyrazolo[4,3-c]pyridin-3-yl]-2-trifluoromethyl-benzyl}-benzamide]
0.37 µM | CC(C)CC(=O)NCc1cc(-c2nn(CC(O)CN3CCCC3)c3c2CN(S(C)(=O)=O)CC3)ccc1C(F)(F)F (stereo not drawn) [Example 281, N-{5-[1-(2-Hydroxy-3-pyrrolidin-1-yl-propyl)-5-methanesulfonyl-4,5,6,7-tetrahydro-1H-pyrazolo[4,3-c]pyridin-3-yl]-2-trifluoromethyl-benzyl]-3-methyl-butyramide]
0.61 µM | CS(=O)(=O)N1CCc2c(c(-c3ccc(C(F)(F)F)c(CNC(=O)c4cc(Cl)cc(Cl)c4)c3)nn2CC(O)CN2CCCC2)C1 (stereo not drawn) [Example 218, 3,5-Dichloro-N-{5-[1-(2-hydroxy-3-pyrrolidin-1-yl-propyl)-5-methanesulfonyl-4,5,6,7-tetrahydro-1H-pyrazolo[4,3-c]pyridin-3-yl]-2-trifluoromethyl-benzyl}-benzamide]
0.58 µM | Cc1ccc(C(=O)NCc2cc(-c3nn(CC(O)CN4CCCC4)c4c3CN(S(C)(=O)=O)CC4)ccc2C(F)(F)F)cc1 (stereo not drawn) [Example 214]
0.23 µM | CS(=O)(=O)N1CCc2c(c(-c3ccc(C(F)(F)F)c(CNC(=O)c4ccc(F)cc4)c3)nn2CC(O)CN2CC[C@@H](CO)C2)C1 (stereo partly drawn) [Example 95, (R)-4-Fluoro-N-(5-{1-[2-hydroxy-3-(3-hydroxymethyl-pyrrolidin-1-yl)-propyl]-5-methanesulfonyl-4,5,6,7-tetrahydro-1H-pyrazolo[4,3-c]pyridin-3-yl}-2-trifluoromethyl-benzyl)-benzamide]
0.15 µM | CS(=O)(=O)N1CCc2c(c(-c3ccc(C(F)(F)F)c(CNC(=O)c4ccc(F)cc4)c3)nn2CC(O)CN2CCC(C(=O)O)CC2)C1 (stereo not drawn) [Example 90, 1-[3-(3-{3-[(4-Fluoro-benzoylamino)-methyl]-4-trifluoromethyl-phenyl}-5-methanesulfonyl-4,5,6,7-tetrahydro-pyrazolo[4,3-c]pyridin-1-yl)-2-hydroxy-propyl]-piperidine-4-carboxylic acid]

— patent publication US20090118274A1, “MONOCYCLIC AMINOPROPYL TETRAHYDRO-PYRAZOLO-PYRIDINE MODULATORS OF CATHEPSIN S” (priority 2007, published 2009)
